Four molecules from patent US9296757B2, “Substituted benzothienopyrimidines” (BAYER PHARMA AKTIENGESELLSCHAFT, priority 2012, dated 2016) can be followed below.

Chain of human full-length MKNK1 (Q9BUB5 other isoform, or with tags, fused parts or gaps T344D): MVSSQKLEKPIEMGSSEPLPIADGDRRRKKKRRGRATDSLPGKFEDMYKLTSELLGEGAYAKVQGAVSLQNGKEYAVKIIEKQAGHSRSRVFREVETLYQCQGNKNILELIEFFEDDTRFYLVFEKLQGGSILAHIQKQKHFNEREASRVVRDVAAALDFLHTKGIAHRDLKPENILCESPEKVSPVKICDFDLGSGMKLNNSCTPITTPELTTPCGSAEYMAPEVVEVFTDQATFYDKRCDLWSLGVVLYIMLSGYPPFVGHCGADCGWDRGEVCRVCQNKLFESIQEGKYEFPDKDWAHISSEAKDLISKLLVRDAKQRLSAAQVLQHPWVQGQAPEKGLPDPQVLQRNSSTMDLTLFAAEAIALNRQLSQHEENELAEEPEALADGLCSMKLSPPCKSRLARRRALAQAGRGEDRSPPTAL

The assay has as its target human full-length MKNK1 (Homo sapiens (Human), UniProt Q9BUB5, T344D). In words: MKNK1 kinase high ATP assay (TR-FRET). The following applies: high ATP (2 mM final), 15 min preincubation with enzyme. Type of assay: biochemical. The gist of the method:
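GST-tagged full-length MKNK1 (T344D), insect-cell expressed, preincubated 15 min at 22 °C with compound, then reacted 30 min at 22 °C with 2 mM ATP and 0.06 μM biotinylated peptide in HEPES pH 7.5 buffer (final concentrations). Phospho-peptide detected by TR-FRET (665/620 nm ratio), normalised to no-inhibitor and no-enzyme controls.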
In general terms: In TR-FRET formats the signal depends on donor and acceptor labels being close together.
Regarding `COc1cc2[nH]c(=O)sc2cc1Nc1ncnc2sc3c(c12)CCC(C(=O)N(CCN(C)C)Cc1ccccc1)C3` (racemic) [Example 92, (RS)—N-Benzyl-N-[2-(dimethylamino)ethyl]-4-[(5-methoxy-2-oxo-2,3-dihydro-1,3-benzothiazol-6-yl)amino]-5,6,7,8-tetrahydro[1]benzothieno[2,3-d]pyrimidine-7-carboxamide], the IC50 (as a rule, the point on the concentration scale where inhibition reaches its midpoint) is 0.6 nM. The value for `COCCN(CCOC)C(=O)C1CCc2c(sc3ncnc(Nc4cc5sc(=O)[nH]c5cc4OC)c23)C1` (racemic) [Example 93, (RS)—N,N-bis(2-methoxyethyl)-4-[(5-methoxy-2-oxo-2,3-dihydro-1,3-benzothiazol-6-yl)amino]-5,6,7,8-tetrahydro[1]benzothieno[2,3-d]pyrimidine-7-carboxamide] was 0.7 nM; that for `COc1cc2[nH]c(=O)sc2cc1Nc1ncnc2sc3c(c12)CCC(C(=O)O)C3` (stereo not shown) [Example 33, 4-[(5-Methoxy-2-oxo-2,3-dihydro-1,3-benzothiazol-6-yl)amino]-5,6,7,8-tetrahydro[1]benzothieno[2,3-d]pyrimidine-7-carboxylic acid] was 42 nM; that for `O=C(C1CCc2c(sc3ncnc(Nc4ccc5[nH]c(=O)sc5c4)c23)C1)N1CCN(Cc2ccccc2)CC1` (stereo not shown) [Example 38, 6-({7-[(4-benzylpiperazin-1-yl)carbonyl]-5,6,7,8-tetrahydro[1]benzothieno[2,3-d]pyrimidin-4-yl}amino)-1,3-benzothiazol-2(3H)-one] was 44 nM.
